Legend:
[1] = test system: B. subtilis 168; experiment: fitness (endpoint OD595 vs no drug) (fraction); higher = more growth
Method in brief: (§1)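 Plates with 384 wells were inoculated at OD595 0.01 using 30 µl of TSB, LB Lennox or CY, or 55 µl for S. pneumoniae. Incubation was at 37 °C, with OD595 measured every 30 min for 14 h. Fitness is the stationary-phase transition optical density over the robust mean of no-drug control wells, after first-reading background subtraction; it is capped at 1.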

[2] = test system: S. aureus DSM 20231; experiment: as above
Method in brief: as §1

[3] = test system: S. aureus Newman; experiment: as above
Method in brief: as §1

[4] = test system: S. pneumoniae D39V; experiment: as above
Method in brief: as §1

[5] = test system: B. subtilis 168; experiment: Bliss interaction score (quartile over a dose matrix) (fitness difference); higher = more antagonism (negative = synergy)
Method in brief: (§2)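 Growth was read as OD595 when cultures entered stationary phase, and each value was divided by the plate's robust no-drug mean and capped at 1. This normalised ratio is the fitness value, and fitness for each single drug came from the combination data. The Bliss score subtracts the expected fitness, taken as the product, from the observed fitness and is given as quartiles across technical, biological and donor/recipient replicates.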

[6] = test system: S. aureus DSM 20231; experiment: as above
Method in brief: as §2

[7] = test system: S. aureus Newman; experiment: as above
Method in brief: as §2

[8] = test system: S. pneumoniae D39V; experiment: as above
Method in brief: as §2
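Wherever Bliss interaction score (quartile over a dose matrix) is given: first quartile when negative (synergy) and third quartile when positive (antagonism).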

CCN(CC)CCOC(=O)c1ccc(N)cc1 [Procaine] + CN[C@@H]1[C@H](O)[C@H](NC)[C@H]2O[C@@]3(O)C(=O)C[C@@H](C)O[C@H]3O[C@@H]2[C@H]1O [Spectinomycin]
fitness
Conditions | first compound 85.5 µg/mL | first compound 171 µg/mL | first compound 342 µg/mL
[1], partner 2 µg/mL | 0.972 | 0.926 | 0.923
[1], partner 4 µg/mL | 0.938 | 0.963 | 0.93
[1], partner 8 µg/mL | 0.895 | 0.84 | 0.824
[2], partner 4 µg/mL | 0.959 | 0.931 | 0.914
[2], partner 8 µg/mL | 0.948 | 0.911 | 0.928
[2], partner 16 µg/mL | 0.82 | 0.848 | 0.868
[3], partner 4 µg/mL | 0.886 | 0.891 | 0.89
[3], partner 8 µg/mL | ≥ 1 | 0.968 | 0.962
[3], partner 16 µg/mL | 0.896 | 0.905 | 0.88
[4], partner 4 µg/mL | ≥ 1 | 0.973 | 0.914
[4], partner 8 µg/mL | 0.964 | 0.955 | 0.929

fitness, one replicate
Conditions | first compound 85.5 µg/mL | first compound 171 µg/mL | first compound 342 µg/mL
[2], partner 32 µg/mL | 0.744 | 0.724 | 0.813
[2], partner 64 µg/mL | 0.0918 | 0.0696 | 0.107
[3], partner 32 µg/mL | 0.678 | 0.652 | 0.629
[3], partner 64 µg/mL | 0.139 | 0.132 | 0.147
[4], partner 16 µg/mL | 0.866 | 0.857 | 0.849

Conditions | Bliss interaction score
[5] | -0.0468
[6] | 0.0496
[7] | 0.0891
[8] | 0.0382

CCCCCCCCCC(=O)N[C@@H](Cc1c[nH]c2ccccc12)C(=O)N[C@H](CC(N)=O)C(=O)N[C@@H](CC(=O)O)C(=O)N[C@@H]1C(=O)NCC(=O)N[C@@H](CCCN)C(=O)N[C@@H](CC(=O)O)C(=O)N[C@H](C)C(=O)N[C@@H](CC(=O)O)C(=O)NCC(=O)N[C@H](CO)C(=O)N[C@@H]([C@H](C)CC(=O)O)C(=O)N[C@@H](CC(=O)c2ccccc2N)C(=O)O[C@@H]1C [Daptomycin] + CCN(CC)CCOC(=O)c1ccc(N)cc1 [Procaine]
fitness
Conditions | first compound 0.125 µg/mL | first compound 0.25 µg/mL | first compound 0.5 µg/mL | first compound 1 µg/mL | first compound 2 µg/mL | first compound 4 µg/mL
[1], partner 85.5 µg/mL | 0.873 | 0.946 | 0.864 | – | – | –
[1], partner 171 µg/mL | 0.9 | 0.898 | 0.799 | – | – | –
[1], partner 342 µg/mL | 0.874 | 0.836 | 0.854 | – | – | –
[2], partner 85.5 µg/mL | 0.912 | 0.913 | 0.931 | 0.956 | 0.774 | –
[2], partner 171 µg/mL | ≥ 1 | ≥ 1 | ≥ 1 | 0.873 | 0.822 | –
[2], partner 342 µg/mL | 0.995 | 0.989 | ≥ 1 | 0.953 | 0.808 | –
[3], partner 85.5 µg/mL | ≥ 1 | ≥ 1 | ≥ 1 | – | – | –
[3], partner 171 µg/mL | 0.984 | ≥ 1 | ≥ 1 | – | – | –
[3], partner 342 µg/mL | 0.989 | 0.98 | ≥ 1 | – | – | –
[4], partner 85.5 µg/mL | – | – | – | 0.994 | 0.961 | 0.945
[4], partner 171 µg/mL | – | – | – | 0.98 | 0.97 | 0.951
[4], partner 342 µg/mL | – | – | – | 0.942 | 0.906 | 0.893

[1], first compound 1 µg/mL, one replicate
Conditions | fitness
partner 85.5 µg/mL | 0.717
partner 171 µg/mL | 0.685
partner 342 µg/mL | 0.682

Conditions | Bliss interaction score
[5] | -0.0699
[6] | 0.0381
[7] | 0.0445
[8] | 0.0859

CCN(CC)CCOC(=O)c1ccc(N)cc1 [Procaine] + COc1ccc(C[C@H](N)C(=O)N[C@H]2[C@@H](O)[C@H](n3cnc4c(N(C)C)ncnc43)O[C@@H]2CO)cc1 [Puromycin]
fitness
Conditions | first compound 85.5 µg/mL | first compound 171 µg/mL | first compound 342 µg/mL
[1], partner 0.39 µg/mL | 0.931 | 0.964 | 0.899
[1], partner 0.78 µg/mL | 0.935 | 0.913 | 0.896
[1], partner 1.56 µg/mL | 0.934 | 0.967 | 0.958
[2], partner 0.39 µg/mL | 0.996 | ≥ 1 | 0.916
[2], partner 0.78 µg/mL | ≥ 1 | ≥ 1 | ≥ 1
[2], partner 1.56 µg/mL | 0.994 | ≥ 1 | ≥ 1
[3], partner 0.39 µg/mL | ≥ 1 | ≥ 1 | ≥ 1
[3], partner 0.78 µg/mL | ≥ 1 | 0.977 | 0.936
[3], partner 1.56 µg/mL | ≥ 1 | ≥ 1 | ≥ 1
[4], partner 1 µg/mL | 0.974 | 0.951 | 0.958
[4], partner 2 µg/mL | 0.948 | 0.966 | 0.955
[4], partner 4 µg/mL | 0.789 | 0.831 | 0.814

fitness, [2], one replicate
Conditions | first compound 85.5 µg/mL | first compound 171 µg/mL | first compound 342 µg/mL
partner 3.12 µg/mL | 0.86 | 0.879 | ≥ 1
partner 6.24 µg/mL | 0.592 | 0.646 | 0.618

Conditions | Bliss interaction score
[5] | 0.0785
[6] | 0.047
[7] | 0.063
[8] | 0.0736

CCCCCCCCCC(=O)N[C@@H](Cc1c[nH]c2ccccc12)C(=O)N[C@H](CC(N)=O)C(=O)N[C@@H](CC(=O)O)C(=O)N[C@@H]1C(=O)NCC(=O)N[C@@H](CCCN)C(=O)N[C@@H](CC(=O)O)C(=O)N[C@H](C)C(=O)N[C@@H](CC(=O)O)C(=O)NCC(=O)N[C@H](CO)C(=O)N[C@@H]([C@H](C)CC(=O)O)C(=O)N[C@@H](CC(=O)c2ccccc2N)C(=O)O[C@@H]1C [Daptomycin] + CN(N=O)C(=O)N[C@@H](C=O)[C@@H](O)[C@H](O)[C@H](O)CO [Streptozotocin]
fitness, one replicate
Conditions | partner 0.15 µg/mL | partner 0.3 µg/mL | partner 0.6 µg/mL
[1], first compound 0.125 µg/mL | 0.889 | 0.968 | 0.935
[1], first compound 1 µg/mL | 0.658 | 0.674 | 0.669
[2], first compound 0.125 µg/mL | 0.795 | 0.761 | 0.645
[2], first compound 0.25 µg/mL | 0.883 | 0.764 | 0.656

fitness
Conditions | partner 0.15 µg/mL | partner 0.3 µg/mL | partner 0.6 µg/mL | partner 1.2 µg/mL | partner 2.4 µg/mL | partner 4.8 µg/mL
[1], first compound 0.25 µg/mL | 0.89 | 0.914 | 0.969 | – | – | –
[1], first compound 0.5 µg/mL | 0.835 | 0.761 | 0.768 | – | – | –
[2], first compound 0.5 µg/mL | 0.817 | 0.778 | 0.732 | – | – | –
[2], first compound 1 µg/mL | 0.93 | 0.799 | 0.744 | – | – | –
[2], first compound 2 µg/mL | 0.871 | 0.818 | 0.748 | – | – | –
[3], first compound 0.125 µg/mL | 0.945 | 0.805 | 0.636 | – | – | –
[3], first compound 0.25 µg/mL | 0.957 | 0.855 | 0.594 | – | – | –
[3], first compound 0.5 µg/mL | 0.969 | 0.807 | 0.627 | – | – | –
[4], first compound 1 µg/mL | – | – | – | 0.94 | 0.939 | 0.918
[4], first compound 2 µg/mL | – | – | – | 0.935 | 0.95 | 0.884
[4], first compound 4 µg/mL | – | – | – | 0.968 | 0.942 | 0.923

Conditions | Bliss interaction score
[5] | -0.0562
[6] | 0.0436
[7] | 0.0468
[8] | 0.0898
